# Test results published in patent publication US20260053861A1, “CELL COMPOSITIONS AND METHODS OF USING THE SAME” (THE REGENTS OF THE UNIVERSITY OF CALIFORNIA, priority 2022, published 2026).
# Structures can show the parent of a compound that is named as a salt.
# System: hPSC-SCs
# Details: not given
row,Molecule,z.score.t
1,COP(=O)(OC)C(O)C(Cl)(Cl)Cl (stereo not shown) [Trichlorfon],−0.04944
2,COc1cc2c(c(OC)c1OC)-c1ccc(O)c(=O)cc1C(N)CC2 (stereo not shown) [Trimethylcolchicinic acid],−0.07901
3,CN1[C@@H]2CC[C@H]1C[C@@H](O)C2 [Tropine],−0.6133
4,COc1cc2c3cc1Oc1cc(ccc1O)C[C@@H]1c4c(cc(OC)c(O)c4Oc4ccc(cc4)C[C@@H]3N(C)CC2)CC[N+]1(C)C.Cl.O.O.O.O.O.[Cl-] [Tubocurarine chloride pentahydrate (+)],−1.166
5,Cc1cccc(C)c1N=C1NCCCS1 [Xylazine],1.75
6,O.O=C(O)[C@@H]1[C@H]2C[C@H]3c4[nH]c5ccccc5c4CCN3C[C@@H]2CC[C@@H]1O [Yohimbinic acid monohydrate],−0.2065
7,CC1=C2[C@H]3OC(=O)[C@@H](C)[C@@H]3CC[C@@]2(C)C=CC1=O [alpha-Santonin],−1.108
8,CC[N+]1(C)[C@@H]2CC[C@H]1CC(OC(=O)[C@@H]1CC[C@@](C(=O)OC3C[C@H]4CC[C@@H](C3)[N+]4(C)CC)(c3ccccc3)c3ccccc31)C2.[Cl-].[Cl-] (stereo partly drawn) [beta-Belladonnine dichloroethylate],1.872
9,(−)-MK 801 hydrogen maleate,1.657
10,(−)-Quinpirole hydrochloride,1.683
11,Antimycin A,−1.787
12,Avermectin B1,0.7158
13,Bromocryptine mesylate,−1.272
14,Butirosin disulfate salt,−0.5169
15,Colistin sulfate,−0.4139
16,Cotinine (−),−0.139

row,Molecule,z.score.t
1,Cyanocobalamin,0.837
2,Cytisine (−),−0.1641
3,Deptropine citrate,−0.247
4,Dihydroergotamine tartrate,−0.5417
5,Foliosidine,−0.2802
6,Guanadrel sulfate,0.7158
7,Helveticoside,1.053
8,Isoetharine mesylate salt,0.5976
9,Lycorine hydrochloride,−2.213
10,Mephentermine hemisulfate,−0.2359
11,Merbromin,−0.7567
12,Pridinol methanesulfonate salt,−0.7183
13,Retrorsine,−0.3526
14,Solanine alpha,−0.2486
15,Tyloxapol,−1.008
16,Viomycin sulfate,−0.2329

# Same assay, conditions: HTS viability of hPSC-SCs in the presence of 30 mM glucose; Prestwick library; Table S4
row,Molecule,z.score.t
1,C[C@]12C=CC(=O)C=C1CC[C@H]1[C@@H]3C[C@@H](O)[C@](O)(C(=O)CO)[C@@]3(C)C[C@H](O)[C@@]12F [Triamcinolone],2.024
2,Nc1nc(N)c2nc(-c3ccccc3)c(N)nc2n1 [Triamterene],0.4903
3,CCOC1O[C@H]([C@@H](COCc2ccccc2)OCc2ccccc2)[C@H](OCc2ccccc2)[C@H]1O (stereo partly shown) [Tribenoside],−1.558
4,NS(=O)(=O)c1cc2c(cc1Cl)NC(C(Cl)Cl)NS2(=O)=O (stereo not shown) [Trichlormethiazide],−0.03362
5,CC[N+](CC)(CC)CCC(O)(c1ccccc1)C1CCCCC1.[Cl-] (stereo not shown) [Tridihexethyl chloride],−1.558
6,CN1CCN(CCCN2c3ccccc3Sc3ccc(C(F)(F)F)cc32)CC1 [Trifluoperazine dihydrochloride],−1.866
7,CN(C)CCCN1c2ccccc2Sc2ccc(C(F)(F)F)cc21 [Triflupromazine hydrochloride],−1.512
8,O=c1[nH]c(=O)n([C@H]2C[C@H](O)[C@@H](CO)O2)cc1C(F)(F)F [Trifluridine],−0.7873
9,CC(=O)Oc1cc(C(F)(F)F)ccc1C(=O)O [Triflusal],1.139
10,C[n+]1cccc(C(=O)[O-])c1 [Trigonelline],0.9213
11,"Cl.OC(CCN1CCCCC1)(c1ccccc1)C1CCCCC1 (stereo not shown) [Trihexyphenidyl-D, L Hydrochloride]",−1.107
12,COc1ccc(CN2CCNCC2)c(OC)c1OC [Trimetazidine dihydrochloride],0.2189
13,CN1C(=O)OC(C)(C)C1=O [Trimethadione],1.08
14,COc1cc(C(=O)NCc2ccc(OCCN(C)C)cc2)cc(OC)c1OC [Trimethobenzamide hydrochloride],−0.2719
15,COc1cc(Cc2cnc(N)nc2N)cc(OC)c1OC [Trimethoprim],0.2479
16,Cc1cc2cc3c(C)cc(=O)oc3c(C)c2o1 [Trioxsalen],−0.1913
17,Cc1ccc(/C(=C\CN2CCCC2)c2ccccn2)cc1 [Triprolidine hydrochloride],0.2479
18,CO[C@H]1C[C@H](O[C@H]2[C@H](C)[C@@H](O[C@@H]3O[C@H](C)C[C@H](N(C)C)[C@H]3OC(C)=O)[C@@H](C)C[C@@]3(CO3)C(=O)[C@H](C)[C@@H](OC(C)=O)[C@@H](C)[C@@H](C)OC(=O)[C@@H]2C)O[C@@H](C)[C@@H]1OC(C)=O [Troleandomycin],1.067
19,Cc1c(C)c2c(c(C)c1O)CCC(C)(C(=O)O)O2 (stereo not shown) [Trolox],2.048
20,CN1[C@@H]2CC[C@H]1C[C@@H](OC(=O)c1c[nH]c3ccccc13)C2 [Tropisetron HCl],−0.7595
21,CO[C@@H]1C=C2CCN(C)[C@@H]2C2c3cc4c(cc3C(=O)OC21)OCO4.O=[N+]([O-])O (stereo partly shown) [Ungerine nitrate],1.117

row,Molecule,z.score.t
1,COc1ccccc1N1CCN(CCCNc2cc(=O)n(C)c(=O)n2C)CC1 [Urapidil hydrochloride],0.4105
2,C[C@H](CCC(=O)O)[C@H]1CC[C@H]2[C@@H]3[C@@H](O)C[C@@H]4C[C@H](O)CC[C@]4(C)[C@H]3CC[C@]12C [Urosiol],−0.6988
3,C[C@H]1[C@H](C)CC[C@]2(C(=O)O)CC[C@]3(C)C(=CC[C@@H]4[C@@]5(C)CC[C@H](O)C(C)(C)[C@@H]5CC[C@]43C)[C@H]12 [Ursolic acid],−0.765
4,Nc1ncnc2c1ncn2[C@@H]1O[C@H](CO)[C@@H](O)[C@@H]1O [Vidarabine],0.1019
5,C=CC(N)CCC(=O)O (stereo not shown) [Vigabatrin],−0.8304
6,CC[C@]12CCCN3CCc4c(n(c5ccccc45)[C@@](O)(C(=O)OC)C1)[C@@H]32 [Vincamine],0.08508
7,CCOC(=O)C1=C[C@]2(CC)CCCN3CCc4c(n1c1ccccc41)[C@@H]32 [Vinpocetine],0.6517
8,O=c1cc(-c2ccc(O)cc2)oc2c([C@@H]3O[C@H](CO)[C@@H](O)[C@H](O)[C@H]3O)c(O)cc(O)c12 [Vitexin],−0.05622
9,O=C(NCCNCC(O)COc1ccc(O)cc1)N1CCOCC1 (stereo not shown) [Xamoterol hemifumarate],0.81
10,Cc1cc(C(C)(C)C)cc(C)c1CC1=NCCN1 [Xylometazoline hydrochloride],−0.827
11,COC(=O)[C@@H]1[C@H]2C[C@H]3c4[nH]c5ccccc5c4CCN3C[C@@H]2CC[C@@H]1O [Yohimbine hydrochloride],0.6763
12,Nc1ccn([C@H]2CC[C@@H](CO)O2)c(=O)n1 [Zalcitabine],−0.9487
13,CCCOc1ccccc1-c1nc2nn[nH]c2c(=O)[nH]1 [Zaprinast],−0.4341
14,COc1cc(-c2ccc(=O)[nH]n2)ccc1OC(F)F [Zardaverine],−1.128
15,"Cc1cn([C@H]2C[C@H](N=[N+]=[N-])[C@@H](CO)O2)c(=O)[nH]c1=O [Zidovudine, AZT]",−0.8478
16,CN(C)C/C=C(/c1ccc(Br)cc1)c1cccnc1 [Zimelidine dihydrochloride monohydrate],0.4064
17,Cc1cc(CC(=O)O)n(C)c1C(=O)c1ccc(Cl)cc1 [Zomepirac sodium salt],−0.9042
18,OCCN1CCN(CC/C=C2/c3ccccc3Sc3ccc(Cl)cc32)CC1 [Zuclopenthixol hydrochloride],−1.345
19,"CCCCNC(=O)NS(=O)(=O)c1ccc(C)cc1 [tolbutamide, Tolbutamide, reference compound]",2.089
20,(S)-(−)-Atenolol,1.606
21,(S)-propranolol hydrochloride,0.6803

row,Molecule,z.score.t
1,Alverine citrate salt,−1.025
2,Beta-Escin,−0.5583
3,Carbinoxamine maleate salt,0.07936
4,Clofilium tosylate,−0.6227
5,Dihydroergotoxine mesylate,0.9377
6,Eburnamonine (−),1.516
7,Ifenprodil tartrate,−1.132
8,Iobenguane sulfate,0.3845
9,Ketanserin tartrate hydrate,−1.137
10,Pizotifen malate,−0.2329
11,S(−)Eticlopride hydrochloride,−0.5169
12,Spiramycin,0.7158
13,Terbutaline hemisulfate,−1.238
14,Thioproperazine dimesylate,−1.223
15,Timolol maleate salt,−0.6395
16,Trimeprazine tartrate,−0.411
17,Trimipramine maleate salt,0.2361
18,Tropicamide,−0.1241
19,Verteporfin,−1.551
20,Vitamin K2,−0.4141
